Earlier results on five compounds are cited in patent US5670663A (priority 1996, dated 1997).

For one data set, the system named is 8A10. Particulars: monoclonal antibody 8A10.
A further data set has as its system 3C6. As to conditions: monoclonal antibody 3C6.
The subject of a further data set is 31-15. As to conditions: antibody printed 31-15.

On to `CC(=O)O[C@H]1C(=O)[C@@]2(C)[C@H]([C@H](OC(=O)c3ccccc3)[C@]3(O)C[C@H](OC(=O)[C@H](O)[C@@H](NC(=O)c4ccccc4)c4ccccc4)C(C)=C1C3(C)C)[C@]1(OC(C)=O)CO[C@@H]1C[C@@H]2O` [paclitaxel], for which, in the data set on 8A10, the “cross reactivity with 8A10” value was “cross reacts”. In addition, in the data set on 3C6, the “reactivity with 3C6” value is “specifically reactive”. For the same compound, the “activity against breast, lung and other cancers” value in the data set on cancer (breast, lung and other cancers) is given as “shown activity”. Moreover, the antitumor activity entry in the data set on cancer (general statement) is reported as “significant antitumor activity”. For the compound `CC(=O)O[C@@]12CO[C@@H]1C[C@H](O)[C@@]1(C)C(=O)[C@H](O)C3=C(C)[C@@H](O)C[C@@](O)([C@@H](OC(=O)c4ccccc4)[C@H]21)C3(C)C` [10-deacetylbaccatin III], the “cross reactivity with 8A10” value in the data set on 8A10 is given as “cross reacts”.

In the case of `CC(=O)O[C@H]1C(=O)[C@]2(C)[C@H](O)C[C@H]3OC[C@@]3(OC(C)=O)[C@H]2[C@H](OC(=O)c2ccccc2)[C@]2(O)C[C@H](O)C(C)=C1C2(C)C` [baccatin V], the “relative affinity of antibody for baccatin III and its 7-epi isomer baccatin V” value in the data set on 31-15 is recorded as “binds with equal affinity”. Consider `CC(=O)O[C@H]1C(=O)[C@@]2(C)[C@H]([C@H](OC(=O)c3ccccc3)[C@]3(O)C[C@H](O)C(C)=C1C3(C)C)[C@]1(OC(C)=O)CO[C@@H]1C[C@@H]2O` [baccatin III], for which the “cross reactivity with 8A10” value in the data set with 8A10 was “cross reacts”. Also, the “relative affinity of antibody for baccatin III and its 7-epi isomer baccatin V” value in the data set with 31-15 is recorded as “binds with equal affinity”. Turning to `C/C=C(\C)C(=O)N[C@@H](c1ccccc1)[C@@H](O)C(=O)O[C@H]1C[C@@]2(O)[C@@H](OC(=O)c3ccccc3)[C@@H]3[C@]4(OC(C)=O)CO[C@@H]4C[C@H](O)[C@@]3(C)C(=O)[C@H](OC(C)=O)C(=C1C)C2(C)C` [Cephalomannine], the “cross reactivity with 8A10” value in the data set with 8A10 is listed as “cross reacts”.
